Key:
[1] = test system: non-phosphorylated β-catenin; test: Western blot of non-phosphorylated β-catenin content in Colo205 cells; format: cell-based; settings: for Effect on content of non-phosphorylated β-catenin (active β-catenin), in words: FIG. 1; for IC50: overnight, Western blot, read-out: Non-phosphorylated β-catenin content inhibition IC50
Text: The Wnt signaling pathway is a key pathway for abnormal tumor growth. In colon cancer, liver cancer, pancreatic cancer and other cancers, a large number of patients have abnormal activation of the Wnt signaling pathway. The Wnt signaling pathway depends on the fine balance of β-catenin protein level. When Wnt signaling is not activated, β-catenin is phosphorylated by CK1 and APC/Axin/GSK-3β complexes, and the β-catenin protein is kept at a low level through ubiquitin-dependent proteasome degradation. When the Wnt signaling pathway is activated, β-catenin maintains a stable state of non-phosphorylation, and non-phosphorylated β-catenin can be transported into the nucleus through Rac1 and other factors, and plays a transcriptional regulatory role by binding to LEF/TCF transcription factors in the nucleus, activates downstream target genes such as C-myc and Cyclin D1, and promotes cell proliferation. Therefore, abnormal activation of the Wnt signaling pathway in tumor cells will lead to abnormal proliferation of tumors. In order to explore the inhibitory mechanism of the compound on the proliferation of tumor cell lines, the compound AN10250399, AN10250421 or AN10250484 was used to treat sensitive cells Colo205, DU4475 and HepG2, and Western blot was used to detect the content of non-phosphorylated β-catenin in the Wnt pathway to clarify the effect of the compound on content of the non-phosphorylated β-catenin.
Add 500 μL of the compound with the highest concentration shown in FIG. 1 to each well of the 6-well cell culture plate, and make a 10-fold gradient dilution of the compound concentration. Then 500 μL of 10^6 Colo205, DU4475 and HepG2 or 500 μL of medium were inoculated into each well, and corresponding solvent treatment was performed simultaneously as negative control wells. The cells were placed in a 5% CO2 cell incubator, cultured overnight at 37° C. The culture medium was removed, washed once with PBS, 200 μL of RIPA buffer containing protease inhibitors was added to each well, and the protein lysate was collected after lysing on ice for 20 min. Add an appropriate amount of concentrated SDS-PAGE protein loading buffer to the collected protein lysate samples, and heat at 100° C. or in a boiling water bath for 3-5 minutes to fully denature the protein. Load the protein sample directly to the SDS-PAGE gel for electrophoresis separation, transfer the protein on the SDS-PAGE gel to the PVDF membrane; after the transfer was completed, the protein was blocked by Western blocking solution, then Rabbit anti-β-catenin non-phospho S37/After T41 (ab278503) was added and the protein was incubated at room temperature for one hour and washed, the content of non-phosphorylated β-catenin was detected by incubation with Goat Anti-Rabbit IgG H&L (HRP) (ab6721). As a control, glyceraldehyde-3-phosphate dehydrogenase (GAPDH) was used as an internal standard protein

Wnt pathway TCF/LEF = test: Colo205-LUC-TCF/LEF luciferase reporter assay with or without MG132; format: cell-based; settings: Colo205-LUC-TCF/LEF cells, 4 hours
Description: The Colo205-LUC-TCF/LEF cell line is a reporter tool cell stably transfected with the pGL4.49-LUC2-TCF/LEF vector, and its Wnt/β-catenin pathway is continuously activated. After adding inhibitor, the expression of firefly luciferase regulated by the TCF/LEF cis-element decreased, and after adding the detection substrate, the detected light signal decreased accordingly, thus the inhibitory effect of the compound was detected.
Add 100 μL of the compound AN10250484 at a maximum concentration of 20 μM to each well of the 96-well cell culture plate, and make a 3-fold gradient dilution of the compound concentration. Then inoculate each well with 10,000 stable Colo205-LUC-TCF/LEF cells containing 2 μM MG132 (Proteasome inhibitor) (MCE: HY-13259) or 10,000 Colo205-LUC-TCF/LEF cells containing control solvents, which were treated accordingly as positive and negative control wells. Place the cells in a 5% CO2 cell incubator and incubate at 37° C. for 4 hours. After 4 hours, remove the culture medium, add 100 μL of reagent (Promega) containing the corresponding firefly luciferase substrate to each well, and measure the luciferase reporter gene activity. Use SpectraMax to read the luminescence intensity in full-wavelength mode.

Row | IC50 [1] [nM] | Inhibitory effect of the compound on the transcription of TCF/LEF after adding MG132 (Wnt pathway TCF/LEF; 2 μM MG132, FIG. 2) | Transcriptional activity of Wnt pathway TCF/LEF (luciferase reporter), in words (Wnt pathway TCF/LEF; control solvent, FIG. 2) | Structure (SMILES) | Effect on content of non-phosphorylated β-catenin (active β-catenin), in words [1]
1 | 10 | significantly reduced | inhibiting Wnt pathway TCF/LEF | Cc1nc(C(F)(F)F)ncc1Oc1ccc(CNc2nc(C)c3c(n2)N(C)[C@@H](C)C(=O)N3)cn1 [AN10250484] | decrease the content of non-phosphorylated β-catenin
2 | 22 |  |  | [2H]C([2H])([2H])N1c2nc(NCc3ccc(Oc4cnc(C(F)(F)F)nc4)nc3)nc3c2N(CCC3)C(=O)[C@]1(C)CO [AN10250399] | decrease the content of non-phosphorylated β-catenin
